± gives the expanded uncertainty stated by the source.
Details: 101.33 kPa, Liquid; for speed of sound: Pulse-echo method; for mass density: Vibrating tube method

C[NH2+]CCO.O=C[O-] [2-hydroxy-N-methylethanaminium formate]
Details | mass density [kg/m3] | speed of sound [m/s] | viscosity [mPa·s]
308.15 K | 1122.67 ± 2.2 | 1795.8 ± 2.2 | 13.73
308.4 K | 1122.53 ± 2.2 | 1795.4 ± 2.2 | –
308.65 K | 1122.39 ± 2.2 | 1794.9 ± 2.2 | –
308.9 K | 1122.25 ± 2.2 | 1794.4 ± 2.2 | –
309.15 K | 1122.11 ± 2.2 | 1793.9 ± 2.2 | –
309.4 K | 1121.97 ± 2.2 | 1793.4 ± 2.2 | –
309.65 K | 1121.83 ± 2.2 | 1792.9 ± 2.2 | –
309.9 K | 1121.69 ± 2.2 | 1792.5 ± 2.2 | –
310.15 K | 1121.55 ± 2.2 | 1792 ± 2.2 | 12.78
310.4 K | 1121.41 ± 2.2 | 1791.5 ± 2.2 | –
310.65 K | 1121.27 ± 2.2 | 1791 ± 2.2 | –
310.91 K | 1121.13 ± 2.2 | 1790.5 ± 2.2 | –
311.16 K | 1120.99 ± 2.2 | 1790 ± 2.2 | –
311.4 K | 1120.85 ± 2.2 | 1789.5 ± 2.2 | –
311.65 K | 1120.71 ± 2.2 | 1789 ± 2.2 | –
311.91 K | 1120.57 ± 2.2 | 1788.5 ± 2.2 | –
312.16 K | 1120.43 ± 2.2 | 1788 ± 2.2 | –
312.41 K | 1120.29 ± 2.2 | 1787.6 ± 2.2 | –
312.66 K | 1120.15 ± 2.2 | 1787.1 ± 2.2 | –
312.91 K | 1120.02 ± 2.2 | 1786.6 ± 2.2 | –
313.15 K | – | – | 11.4
313.16 K | 1119.87 ± 2.2 | 1786.1 ± 2.2 | –
313.4 K | 1119.74 ± 2.2 | 1785.6 ± 2.2 | –
313.66 K | 1119.6 ± 2.2 | 1785.1 ± 2.2 | –
313.9 K | 1119.46 ± 2.2 | 1784.6 ± 2.2 | –
314.15 K | 1119.32 ± 2.2 | 1784.1 ± 2.2 | –
314.4 K | 1119.18 ± 2.2 | 1783.6 ± 2.2 | –
314.65 K | 1119.04 ± 2.2 | 1783.1 ± 2.2 | –
314.9 K | 1118.9 ± 2.2 | 1782.7 ± 2.2 | –
315.15 K | 1118.77 ± 2.2 | 1782.2 ± 2.2 | 10.56
315.41 K | 1118.62 ± 2.2 | 1781.7 ± 2.2 | –
315.65 K | 1118.49 ± 2.2 | 1781.2 ± 2.2 | –
315.91 K | 1118.35 ± 2.2 | 1780.7 ± 2.2 | –
316.16 K | 1118.21 ± 2.2 | 1780.2 ± 2.2 | –
316.41 K | 1118.07 ± 2.2 | 1779.7 ± 2.2 | –
316.66 K | 1117.93 ± 2.2 | 1779.2 ± 2.2 | –
316.91 K | 1117.79 ± 2.2 | 1778.8 ± 2.2 | –
317.16 K | 1117.65 ± 2.2 | 1778.3 ± 2.2 | –
317.4 K | 1117.52 ± 2.2 | 1777.8 ± 2.2 | –
317.65 K | – | – | 9.7
317.66 K | 1117.38 ± 2.2 | 1777.3 ± 2.2 | –
317.91 K | 1117.24 ± 2.2 | 1776.8 ± 2.2 | –
318.16 K | 1117.1 ± 2.2 | 1776.3 ± 2.2 | –
318.41 K | 1116.96 ± 2.2 | 1775.8 ± 2.2 | –
318.65 K | 1116.82 ± 2.2 | 1775.3 ± 2.2 | –
318.9 K | 1116.69 ± 2.2 | 1774.8 ± 2.2 | –
319.16 K | 1116.55 ± 2.2 | 1774.4 ± 2.2 | –
319.41 K | 1116.41 ± 2.2 | 1773.9 ± 2.2 | –
319.65 K | 1116.27 ± 2.2 | 1773.4 ± 2.2 | –
319.91 K | 1116.13 ± 2.2 | 1772.9 ± 2.2 | –
320.16 K | 1115.99 ± 2.2 | 1772.4 ± 2.2 | –
320.41 K | 1115.86 ± 2.2 | 1772 ± 2.2 | –
320.65 K | 1115.72 ± 2.2 | 1771.5 ± 2.2 | 9.07
320.91 K | 1115.58 ± 2.2 | 1771 ± 2.2 | –
321.15 K | 1115.44 ± 2.2 | 1770.5 ± 2.2 | –
321.41 K | 1115.3 ± 2.2 | 1770 ± 2.2 | –
321.66 K | 1115.16 ± 2.2 | 1769.6 ± 2.2 | –
321.9 K | 1115.03 ± 2.2 | 1769.1 ± 2.2 | –
322.15 K | 1114.89 ± 2.2 | 1768.6 ± 2.2 | –
322.41 K | 1114.75 ± 2.2 | 1768.1 ± 2.2 | –
322.65 K | 1114.61 ± 2.2 | 1767.6 ± 2.2 | –
322.91 K | 1114.47 ± 2.2 | 1767.2 ± 2.2 | –
323.15 K | – | – | 8.38
323.16 K | 1114.34 ± 2.2 | 1766.7 ± 2.2 | –
323.41 K | 1114.2 ± 2.2 | 1766.2 ± 2.2 | –
323.65 K | 1114.06 ± 2.2 | 1765.7 ± 2.2 | –
323.91 K | 1113.92 ± 2.2 | 1765.2 ± 2.2 | –
324.16 K | 1113.79 ± 2.2 | 1764.8 ± 2.2 | –
324.41 K | 1113.65 ± 2.2 | 1764.3 ± 2.2 | –
324.65 K | 1113.51 ± 2.2 | 1763.8 ± 2.2 | –
324.9 K | 1113.38 ± 2.2 | 1763.3 ± 2.2 | –
325.16 K | 1113.24 ± 2.2 | 1762.8 ± 2.2 | –
325.4 K | 1113.1 ± 2.2 | 1762.3 ± 2.2 | –
325.66 K | 1112.96 ± 2.2 | 1761.9 ± 2.2 | –
325.9 K | 1112.83 ± 2.2 | 1761.4 ± 2.2 | –
326.16 K | 1112.69 ± 2.2 | 1760.9 ± 2.2 | –
326.41 K | 1112.55 ± 2.2 | 1760.4 ± 2.2 | –
326.66 K | 1112.42 ± 2.2 | 1759.9 ± 2.2 | –
326.9 K | 1112.28 ± 2.2 | 1759.4 ± 2.2 | –
327.16 K | 1112.14 ± 2.2 | 1759 ± 2.2 | –
327.4 K | 1112.01 ± 2.2 | 1758.5 ± 2.2 | –
327.66 K | 1111.87 ± 2.2 | 1758 ± 2.2 | –
327.9 K | 1111.74 ± 2.2 | 1757.5 ± 2.2 | –
328.15 K | 1111.6 ± 2.2 | 1757 ± 2.2 | –
328.41 K | 1111.46 ± 2.2 | 1756.5 ± 2.2 | –
328.66 K | 1111.33 ± 2.2 | 1756 ± 2.2 | –
328.9 K | 1111.19 ± 2.2 | 1755.6 ± 2.2 | –
329.16 K | 1111.06 ± 2.2 | 1755.1 ± 2.2 | –
329.4 K | 1110.92 ± 2.2 | 1754.6 ± 2.2 | –
329.65 K | 1110.78 ± 2.2 | 1754.1 ± 2.2 | –
329.9 K | 1110.65 ± 2.2 | 1753.6 ± 2.2 | –
330.16 K | 1110.52 ± 2.2 | 1753.2 ± 2.2 | –
330.41 K | 1110.38 ± 2.2 | 1752.7 ± 2.2 | –
330.66 K | 1110.25 ± 2.2 | 1752.2 ± 2.2 | –
330.91 K | 1110.12 ± 2.2 | 1751.8 ± 2.2 | –
331.16 K | 1109.99 ± 2.2 | 1751.3 ± 2.2 | –
331.41 K | 1109.86 ± 2.2 | 1750.8 ± 2.2 | –
331.66 K | 1109.73 ± 2.2 | 1750.3 ± 2.2 | –
331.91 K | 1109.6 ± 2.2 | 1749.9 ± 2.2 | –
332.16 K | 1109.47 ± 2.2 | 1749.4 ± 2.2 | –
332.41 K | 1109.34 ± 2.2 | 1748.9 ± 2.2 | –
332.66 K | 1109.21 ± 2.2 | 1748.5 ± 2.2 | –
332.91 K | 1109.08 ± 2.2 | 1748 ± 2.2 | –
333.16 K | 1108.95 ± 2.2 | 1747.5 ± 2.2 | –
333.41 K | 1108.82 ± 2.2 | 1747.1 ± 2.2 | –
333.66 K | 1108.69 ± 2.2 | 1746.6 ± 2.2 | –
333.91 K | 1108.56 ± 2.2 | 1746.2 ± 2.2 | –
334.16 K | 1108.43 ± 2.2 | 1745.7 ± 2.2 | –
334.41 K | 1108.3 ± 2.2 | 1745.2 ± 2.2 | –
334.66 K | 1108.18 ± 2.2 | 1744.8 ± 2.2 | –
334.91 K | 1108.05 ± 2.2 | 1744.3 ± 2.2 | –
335.16 K | 1107.92 ± 2.2 | 1743.8 ± 2.2 | –
335.41 K | 1107.79 ± 2.2 | 1743.4 ± 2.2 | –
335.66 K | 1107.67 ± 2.2 | 1742.9 ± 2.2 | –
335.91 K | 1107.54 ± 2.2 | 1742.5 ± 2.2 | –
336.16 K | 1107.42 ± 2.2 | 1742 ± 2.2 | –
336.41 K | 1107.29 ± 2.2 | 1741.6 ± 2.2 | –
336.66 K | 1107.16 ± 2.2 | 1741.1 ± 2.2 | –
336.9 K | 1107.03 ± 2.2 | 1740.7 ± 2.2 | –
337.16 K | 1106.9 ± 2.2 | 1740.2 ± 2.2 | –
337.4 K | 1106.78 ± 2.2 | 1739.8 ± 2.2 | –
337.66 K | 1106.66 ± 2.2 | 1739.4 ± 2.2 | –
337.9 K | 1106.53 ± 2.2 | 1738.9 ± 2.2 | –
338.15 K | 1106.43 ± 2.2 | 1738.6 ± 2.2 | –

Reference: the NIST ThermoML archive (doi:10.1021/je900550v)
